Assay results from paper PMC11879040, “Advancing systemic toxicity risk assessment: Evaluation of a NAM-based toolbox approach” (Toxicological Sciences, 2024).
Counter-ions that a name gives are not always drawn. Like-named read-outs stand apart in the source and are kept apart here.

Legend:
[1] = system: Potassium Voltage-Gated Channel Kv non-selective, KCNQ1 (r); assay: IPP KCNQ1 binding (antagonist radioligand); parameters: species or system rat; conditions: IPP screening at 100 uM; control α-dendrotoxin
[2] = system: Gamma-aminobutyric acid receptor subunit alpha-1 BZD site, GABRA1A (r); type: binding, rat
[3] = system: Sodium channel protein type 5 subunit alpha (site 2), SCN5A (r); type: binding, rat; conditions: IPP screening at 100 uM; control veratridine
[4] = target: T1, Adenosine receptor A2a, ADORA2A (h) (Homo sapiens, UniProt P29274); assay: IPP ADORA2A binding (agonist radioligand); conditions: IPP screening at 100 uM; control NECA
T1 construct: purchased Eurofins Cerep (SafetyScreen44-based IPP panel)
T1 sequence (P29274 whole entry): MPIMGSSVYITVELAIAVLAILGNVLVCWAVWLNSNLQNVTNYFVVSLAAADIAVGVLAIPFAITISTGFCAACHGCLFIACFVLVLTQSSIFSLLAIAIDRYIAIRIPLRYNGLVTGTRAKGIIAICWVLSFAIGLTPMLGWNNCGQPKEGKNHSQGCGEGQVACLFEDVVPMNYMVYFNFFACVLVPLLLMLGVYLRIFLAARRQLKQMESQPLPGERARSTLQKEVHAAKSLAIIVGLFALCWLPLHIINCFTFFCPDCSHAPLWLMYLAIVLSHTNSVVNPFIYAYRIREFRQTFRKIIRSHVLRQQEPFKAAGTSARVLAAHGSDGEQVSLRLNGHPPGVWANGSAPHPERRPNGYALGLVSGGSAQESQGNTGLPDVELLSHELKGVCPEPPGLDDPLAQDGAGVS

[5] = target: T2, Estrogen receptor, ER1 (h) (Homo sapiens, UniProt P03372); assay: IPP ER1 coactivator recruitment (agonist); type: biochemical; conditions: 100 uM, estriol, * denotes assay interference (2-Amino-6-chloro-4-nitrophenol, HC Red 3)
T2 construct: purchased Eurofins Cerep (SafetyScreen44-based IPP panel)
T2 sequence (P03372 1-595): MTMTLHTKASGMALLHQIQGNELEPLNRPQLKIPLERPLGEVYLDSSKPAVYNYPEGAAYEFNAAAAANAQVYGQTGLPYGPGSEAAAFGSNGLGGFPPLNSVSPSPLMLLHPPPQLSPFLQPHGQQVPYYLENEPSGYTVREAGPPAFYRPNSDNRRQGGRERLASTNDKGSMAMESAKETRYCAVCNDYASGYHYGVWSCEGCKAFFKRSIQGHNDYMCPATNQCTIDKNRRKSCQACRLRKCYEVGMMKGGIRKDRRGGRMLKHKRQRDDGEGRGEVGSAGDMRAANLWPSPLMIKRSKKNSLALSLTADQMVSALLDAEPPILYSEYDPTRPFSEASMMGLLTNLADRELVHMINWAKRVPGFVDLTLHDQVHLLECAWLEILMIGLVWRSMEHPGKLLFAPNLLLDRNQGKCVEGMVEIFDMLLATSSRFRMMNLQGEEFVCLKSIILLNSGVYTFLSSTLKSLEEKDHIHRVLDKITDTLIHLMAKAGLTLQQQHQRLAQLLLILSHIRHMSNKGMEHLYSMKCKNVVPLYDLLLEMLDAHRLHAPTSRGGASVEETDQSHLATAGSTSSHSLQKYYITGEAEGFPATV

[6] = target: T2, Estrogen receptor, ER1 (h); assay: IPP ER1 coactivator recruitment (antagonist); type: biochemical; conditions: 100 uM, estriol, * denotes assay interference (2-Amino-6-chloro-4-nitrophenol, HC Red 3)
[7] = system: Thyroid hormone receptor alpha, THRA (h); assay: IPP THRA coactivator recruitment (agonist); type: biochemical, human; conditions: agonist, T3
[8] = system: Tubulin (r); assay: IPP Tubulin binding; parameters: species or system rat; conditions: ligand/control Colchicine
[9] = system: HepG2 cells; assay: Cell stress panel (CSP), 24 h, 8 concentrations, BIFROST global PoD; type: cell-based; conditions: HepG2; cell stress panel PoD
Procedure: Compounds were tested using the previously developed cell stress panel ([Hatherell et al. 2020]) and the expanded biomarker panel outlined in Middleton et al. HepG2 cells were treated with all compounds for 24 h across 8 concentrations prior to biomarker analysis. The same plate layout and number of replicates (3 biological and 2 technical) were used as previously for each assay within the panel.

[10] = system: HepG2 cells; assay: High-throughput transcriptomics (HTTr, TempO-Seq), HepG2, 24 h; type: cell-based, human; conditions: HepG2; for pod_httr_bifrost PoD: HTTr BIFROST PoD; for podl_path_minbmd PoD: HTTr minimum pathway BMD(L)
Procedure: (§1) HepG2, HepaRG, and MCF7 cells were treated with each compound for 24 h across a dose range of 7 concentrations and lysed using TempO-Seq lysis buffer (BioSpyder Technologies, proprietary kit, see [Middleton et al. 2022] for method details). Sequencing was performed using TempO-Seq (BioClavis) version 2 of the human whole transcriptome panel and analyzed as described previously in Middleton et al.

[11] = system: HepaRG cells; assay: High-throughput transcriptomics (HTTr, TempO-Seq), HepaRG, 24 h; type: cell-based, human; conditions: HepaRG; for pod_httr_bifrost PoD: HTTr BIFROST PoD; for podl_path_minbmd PoD: HTTr minimum pathway BMD(L)
Procedure: as §1

[12] = system: MCF7 cells; assay: High-throughput transcriptomics (HTTr, TempO-Seq), MCF7, 24 h; type: cell-based, human; conditions: MCF-7; for pod_httr_bifrost PoD: HTTr BIFROST PoD; for podl_path_minbmd PoD: HTTr minimum pathway BMD(L)
Procedure: as §1

[13] = system: Glutamate receptor ionotropic NMDA 1 non-selective, GRIN1 (r)
[14] = target: Potassium voltage-gated channel subfamily H member 2 hERG, KCNH2 (h) (Homo sapiens, UniProt Q12809); conditions: human, 100 µM
Potassium voltage-gated channel subfamily H member 2 hERG, KCNH2 (h), sequence (Q12809 whole entry): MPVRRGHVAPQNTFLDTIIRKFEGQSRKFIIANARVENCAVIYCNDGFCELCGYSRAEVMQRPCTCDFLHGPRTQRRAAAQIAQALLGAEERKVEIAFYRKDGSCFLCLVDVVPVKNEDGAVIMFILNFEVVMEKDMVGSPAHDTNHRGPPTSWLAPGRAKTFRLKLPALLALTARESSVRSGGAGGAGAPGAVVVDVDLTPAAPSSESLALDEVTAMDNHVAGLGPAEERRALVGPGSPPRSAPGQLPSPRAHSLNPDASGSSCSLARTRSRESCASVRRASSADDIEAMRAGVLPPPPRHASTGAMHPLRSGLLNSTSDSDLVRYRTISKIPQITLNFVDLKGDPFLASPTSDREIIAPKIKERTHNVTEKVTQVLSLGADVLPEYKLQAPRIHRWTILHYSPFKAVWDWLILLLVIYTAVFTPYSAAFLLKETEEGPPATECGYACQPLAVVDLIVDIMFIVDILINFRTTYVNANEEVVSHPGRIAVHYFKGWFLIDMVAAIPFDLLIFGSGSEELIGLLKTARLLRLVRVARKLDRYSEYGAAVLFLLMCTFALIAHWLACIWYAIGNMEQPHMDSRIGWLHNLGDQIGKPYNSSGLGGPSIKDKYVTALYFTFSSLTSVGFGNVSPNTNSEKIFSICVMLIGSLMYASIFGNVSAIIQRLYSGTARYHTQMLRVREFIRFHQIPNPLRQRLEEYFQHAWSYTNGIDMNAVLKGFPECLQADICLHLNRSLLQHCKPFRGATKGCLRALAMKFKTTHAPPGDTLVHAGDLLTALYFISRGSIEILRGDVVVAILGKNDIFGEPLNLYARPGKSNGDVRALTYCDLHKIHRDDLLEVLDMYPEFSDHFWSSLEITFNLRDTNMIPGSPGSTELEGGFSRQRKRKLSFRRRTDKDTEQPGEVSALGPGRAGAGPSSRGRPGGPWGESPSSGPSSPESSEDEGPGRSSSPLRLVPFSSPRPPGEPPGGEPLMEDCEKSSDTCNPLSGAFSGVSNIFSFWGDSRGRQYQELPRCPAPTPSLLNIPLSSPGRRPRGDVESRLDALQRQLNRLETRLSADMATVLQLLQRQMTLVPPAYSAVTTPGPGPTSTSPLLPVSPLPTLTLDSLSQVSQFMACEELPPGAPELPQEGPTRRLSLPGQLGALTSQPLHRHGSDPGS

[15] = human
[16] = system: rat; conditions: cited from earlier work
[17] = system: 63 targets with known safety liabilities; assay: In vitro pharmacological profiling (IPP) panel, screening at 10 or 100 µM and dose response, minimum IC50/AC50; type: biochemical; conditions: lowest AC50 across IPP panel (systemic targets); cell_type -; read-out: ipp_lowest_ac50_systemic PoD
[18] = cited from earlier work
[19] = IPP screening at 100 uM, control diazepam
[20] = 100 uM, * denotes assay interference (2-Amino-6-chloro-4-nitrophenol, HC Red 3)
[21] = IPP screening at 100 uM, control CGS 19755
[22] = IV bolus 391 mg, healthy 2 male 3 female, calibration, ref Pentikäinen et al. 1979
[23] = IV infusion 195 mg, 4 healthy male, validation, ref Tucker et al. 1981
[24] = Oral 391 mg (IR: Tablet), fasted, healthy 2 male 3 female, calibration, ref Pentikäinen et al. 1979
[25] = Oral 391 mg (IR: Tablet), fed, healthy 12 male 4 female, validation, ref Tucker et al. 1981

For `CCCCCCC(O)CO` (stereo not shown) [1,2-Octanediol, Octane-1,2-diol], the Specific binding [1] was -4.4%, the Specific binding [2, 19] was 10.0% and the Specific binding [3] was 26.3%. For the same compound, the Specific binding [4] was 1.4%, the “IPP screening %, Coactivator recruitment” value [5] was 0.0% and the “IPP screening %, Coactivator recruitment” value [6] was 0.0%. The “IPP screening %, Coactivator recruitment” value [7, 20] was 2.0%, the “IPP screening %, Specific binding” value ([8]; 100 uM) was 3.0% and the “pod_cell_stress PoD” value [9] was 272.296 µM. The “pod_httr_bifrost PoD” value [10] was 108.846 µM, the “podl_path_minbmd PoD” value [10] was 1029.23 µM and the “pod_httr_bifrost PoD” value [11] was 103.989 µM. The “podl_path_minbmd PoD” value [11] was 259.271 µM, the “pod_httr_bifrost PoD” value [12] was 48.9281 µM and the “podl_path_minbmd PoD” value [12] was 968.894 µM. The Specific binding [13, 21] was 3.1%, the “IPP screening %, Specific binding” value [14] was 14.6% and the risk [15] was 0. The “PoD (NOAEL)” value ([16]; rat, developmental, ref ToxRefDB/Paul-Friedman et al. (2020)/regulatory opinions) was 150 mg/kg bw/day.
In the case of `O=C(O)COCCN1CCN(C(c2ccccc2)c2ccc(Cl)cc2)CC1` (stereo not shown) [Cetirizine dihydrochloride, (2-{4-[(4-Chlorophenyl)(phenyl)methyl]piperazin-1-yl}ethoxy)acetic acid--hydrogen chloride (1/2)], the “IPP screening %, Coactivator recruitment” value ([7]; 10 uM) is reported as 2.0%, the “IPP screening %, Specific binding” value ([8]; 10 uM) is reported as 14.0% and the “pod_cell_stress PoD” value [9] is reported as 67.3241 µM. The Specific binding [13] was 1.4% and the risk [15] was 1.
In the case of `O=C(O)COCCN1CCN(C(c2ccccc2)c2ccc(Cl)cc2)CC1` (stereo not shown) [Cetirizine_dihydrochloride], the “pod_httr_bifrost PoD” value [10] is reported as 9.8579 µM, the “podl_path_minbmd PoD” value [10] is reported as 120 µM and the “pod_httr_bifrost PoD” value [11] is reported as 0.6956 µM. For the same compound, the “podl_path_minbmd PoD” value [11] was 13.467 µM, the “pod_httr_bifrost PoD” value [12] was 3.21 µM and the “podl_path_minbmd PoD” value [12] was 78.4644 µM. The AC50 [17] was 81 nM.
With `Nc1ccc(NCCO)c([N+](=O)[O-])c1` [HC_Red_3] the “pod_httr_bifrost PoD” value [10] was 0.3766 µM, the “podl_path_minbmd PoD” value [10] was 1.617 µM and the “pod_httr_bifrost PoD” value [11] was 0.1851 µM. For the same compound, the “podl_path_minbmd PoD” value [11] was 0.9652 µM, the “pod_httr_bifrost PoD” value [12] was 0.8099 µM and the “podl_path_minbmd PoD” value [12] was 25.6755 µM. It also gave an AC50 [17] of 2170 nM.
For `NNc1nncc2ccccc12` [Hydralazine_hydrochloride], the “pod_httr_bifrost PoD” value [10] was 1.708 µM, the “podl_path_minbmd PoD” value [10] was 20.4222 µM and the “pod_httr_bifrost PoD” value [11] was 1.593 µM. For the same compound, the “podl_path_minbmd PoD” value [11] was 111.897 µM, the “pod_httr_bifrost PoD” value [12] was 0.3784 µM and the “podl_path_minbmd PoD” value [12] was 100.098 µM. The AC50 [17] was 1200 nM.
In the case of `CCN(CC)CCNC(=O)c1cc(Cl)c(N)cc1OC` [Metclopramide], the “pod_cell_stress PoD” value [9] is reported as 73.2603 µM, the “pod_httr_bifrost PoD” value [10] is reported as 16.0473 µM and the “podl_path_minbmd PoD” value [10] is reported as 79.9772 µM. The “pod_httr_bifrost PoD” value [11] was 30.9764 µM, the “podl_path_minbmd PoD” value [11] was 92.5373 µM and the “pod_httr_bifrost PoD” value [12] was 18.3439 µM. The “podl_path_minbmd PoD” value [12] was 87.28 µM and the AC50 [17] was 46 nM.
For `CN(C)C(=N)N=C(N)N` [Metformin, N,N-Dimethyltriimidodicarbonic diamide], the Specific binding [2] was 0.6%, the Specific binding [4] was -1.4% and the “IPP screening %, Coactivator recruitment” value [7, 20] was 4.0%. The “IPP screening %, Specific binding” value ([8]; 100 uM) was 14.0%, the “pod_cell_stress PoD” value [9] was 133.042 µM and the “pod_httr_bifrost PoD” value [10] was 107.11 µM. The “podl_path_minbmd PoD” value [10] was 592.816 µM, the “pod_httr_bifrost PoD” value [11] was 80.527 µM and the “podl_path_minbmd PoD” value [11] was 386.965 µM. The “pod_httr_bifrost PoD” value [12] was 45.2765 µM, the “podl_path_minbmd PoD” value [12] was 722.808 µM and the Specific binding [13] was -9.9%. The risk [15] was 1, the “Reported AUC0-t” value [18, 22] was 23529 ng·h/mL and the Reported cmax [18, 22] was 47.318 µg/mL. The Reported tmax [18, 22] was 4.2 min, the “Reported AUC0-t” value [18, 23] was 8905.5 ng·h/mL and the Reported cmax [18, 23] was 8.93 µg/mL. For the same compound, the Reported tmax [18, 23] was 0 min, the “Reported AUC0-t” value [18, 24] was 10696 ng·h/mL and the Reported cmax [18, 24] was 3.1615 µg/mL. For the same compound, the Reported tmax [18, 24] was 43.11 min, the “Reported AUC0-t” value [18, 25] was 11234 ng·h/mL and the Reported cmax [18, 25] was 2 µg/mL. For the same compound, the Reported tmax [18, 25] was 104 min.
Work on `O=C(O)c1ccc2c(c1)C(=O)OC2=O` [Trimellitic anhydride, 1,3-Dioxo-1,3-dihydro-2-benzofuran-5-carboxylic acid] yielded a Specific binding [1] of -6.6%, a Specific binding [2, 19] of 12.5% and a Specific binding [3] of 30.3%. The Specific binding [4] was 6.5%, the “IPP screening %, Coactivator recruitment” value [5] was 1.0% and the “IPP screening %, Coactivator recruitment” value [6] was -1.0%. The “IPP screening %, Coactivator recruitment” value [7, 20] was 1.0%, the “IPP screening %, Specific binding” value ([8]; 100 uM) was 2% and the Specific binding [13, 21] was 9.9%. For the same compound, the “IPP screening %, Specific binding” value [14] was -16.7%, the “PoD (NOEL)” value ([16]; rat, repeat dose, ref ECHA dossier) was 300 mg/kg bw/day and the “NOAEL, dietary intake” value ([16]; repeat dose, before adjustment, ref ECHA dossier) was “Adjusted from NOAEL of 10000ppm dietary intake - ECHA dossier. Other studies referenced are for trimellitic acid”.
With `COc1ccc(CCN(C)CCCC(C#N)(c2ccc(OC)c(OC)c2)C(C)C)cc1OC` (stereo not shown) [Verapamil_hydrochloride] the “pod_httr_bifrost PoD” value [10] was 1.132 µM, the “podl_path_minbmd PoD” value [10] was 8.538 µM and the “pod_httr_bifrost PoD” value [11] was 1.688 µM. For the same compound, the “podl_path_minbmd PoD” value [11] was 24.0605 µM, the “pod_httr_bifrost PoD” value [12] was 0.3576 µM and the “podl_path_minbmd PoD” value [12] was 10.6709 µM. The AC50 [17] was 17 nM.
